How the values were obtained:
[1] = system: B16 melanoma 4A5 cell; test: Whitening test: theophylline-induced melanine production in B16 melanoma 4A5 cells; type: cell-based, mouse; settings: for Whitening effect (melanine production suppressing rate): sample at a concentration of 100 μM or less, theophylline-induced melanine production, 3 days culture, N=4;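 on Whitening effect (melanine production suppressing rate): grades: ± under 20% + 20-40% ++ 40-70% +++ 70-100% suppression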
Experimental: As a test for a whitening effect, evaluation of the action of B16 melanoma 4A5 cell on theophylline-induced melanine production was carried out on an ascorbic acid derivative of the present invention, according to the following procedure. The same evaluation was carried out also on ascorbic acid, known compounds: ascorbic acid salts, and ascorbic acid derivatives, as comparison. The results are shown in Tables 38 to 40. • (1) B16 mouse melanoma 4A5 strain was sowed onto a 48-well plate at a cell density of 2.0×10^4 cells/well. • (2) Culturing was performed for 24 hours with Dulbecco's Modified Eagle's medium (manufactured by SIGMA. Hereinafter, abbreviated as D-MEM) containing 10% fetal bovine serum (manufactured by Roshe Diagnostics). Then, it was changed to 0.2 mM theophylline and a 10% fetal bovine serum-containing D-MEM which contains a sample of given concentration. • (3) After culturing for 3 days in the co-existence of a sample, the medium was removed using an aspirator. Then, after distilled water was added, cells were broken by an ultrasonic wave. • (4) Thereafter, the amount of protein was determined using BCA protein assay kit (manufactured by PIERCE), and the produced amount of melanine was measured by an alkali solubilizing method. To the cell-destructed solution was added sodium hydroxide so as to give a final concentration of 2N and the mixture was dissolved by heating (60° C., 15 minutes), then, the absorbance at 450 nm was measured using a micro plate reader. The melanine amount was calculated from a calibration curve made using synthetic melanine (SIGMA) as a standard. The melanine amount per unit protein was calculated by dividing the melanine amount by the protein amount. • (5) The melanine production suppressing rate was calculated according to the following formula. Melanine production suppressing rate (%)=[1−(A−B)/(C−B)]×100 [wherein, A represents the melanine amount per unit protein (g/g) in adding a sample, B represents the melanine amount per unit protein (g/g) in the normal group, and C represents the melanine amount per unit protein (g/g) in the control group.]
In the following Tables, the melanine production suppressing rate in measuring a sample at a concentration of 100 μM or less is expressed as described below. The measurement was carried out at N=4.

[2] = system: Normal human dermal fibroblasts; test: Collagen production of human fibroblast (Sircol collagen assay, 100 μM, 48 hours); type: cell-based; settings: cultured 48 hours; for Collagen production promoting effect (collagen production amount, % of control group): N=4
Experimental: Normal human dermal fibroblasts were regulated with a 10% (v/v) fetal bovine serum (manufactured by Roshe Diagnostics)-containing D-MEM so as to give a cell density of 2.5×10^4 cells/well, then, pre-incubation for 24 hours was performed on a 96-well plate. After the medium was removed, a sample regulated with a 5% (v/v) fetal bovine serum-containing D-MEM to a concentration of 100 μM was added to each well, then, cultured for 48 hours under 37° C. and 5% CO2. After completion of culturing, the amount of free collagen was measured using Sircol collagen assay kit (manufactured by Biocolor). The measurement was carried out at N=4.
The collagen production amount in measuring a sample at a concentration of 100 μM was compared with the control group, and the results thereof (% value when the control group is 100%) are shown in Tables 44 and 45 based on the following standard.

| Molecule | Whitening effect (melanine production suppressing rate) [1] | also measured |
| --- | --- | --- |
| CCCCCCCCC(O)COC1=C(OCC(O)CO)C(=O)OC1C(O)CO (centres unmarked) [Example 83] | + (20 to 40%:+) | Collagen production promoting effect (collagen production amount, % of control group) [2]: + (100 to 200%:+) |
| CCOCC(O)COC1=C(OCC)C(=O)O[C@@H]1[C@@H](O)CO (some centres unmarked) [Example 66] | + (20 to 40%:+) | Collagen production promoting effect (collagen production amount, % of control group) [2]: + (100 to 200%:+) |
| 3-O-(2-hydroxydecyl)-2-O-butylglyceryl ascorbic acid [Example 28] | ++ (40 to 70%:++) | Collagen production promoting effect (collagen production amount, % of control group) [2]: + (100 to 200%:+) |
| CCCCCCCCCCCCCCCCOCC(O)COC1=C(OCC(O)CO)C(C(O)CO)OC1=O (centres unmarked) [Example 86] | ++ (40 to 70%:++) | – |
| CCOC1=C(OCC(O)CO)C(=O)OC1C(O)CO (centres unmarked) [Example 96] | + (20 to 40%:+) | – |
| CCCCCCCCCCCCCCCCOC1=C(OCC(O)CO)[C@@H]([C@@H](O)CO)OC1=O (some centres unmarked) [Example 15, 3-O-glyceryl-2-O-hexadecyl ascorbic acid] | ++ (40 to 70%:++) | – |
| CCCCOCC(O)COC1=C(O)[C@@H]([C@@H](O)CO)OC1=O (some centres unmarked) [Example 48] | +++ (70 to 100%:+++) | Collagen production promoting effect (collagen production amount, % of control group) [2]: + (100 to 200%:+) |
| CCCCCCCCCCCCOC1=C(OCC(O)CO)[C@@H]([C@@H](O)CO)OC1=O (some centres unmarked) [Example 63] | ++ (40 to 70%:++) | – |
| CCCCCCCCCCCCCCCCOCC(O)COC1=C(OCC(O)COCCCCCCCC)C(C(O)CO)OC1=O (centres unmarked) [Example 92] | ++ (40 to 70%:++) | Collagen production promoting effect (collagen production amount, % of control group) [2]: + (100 to 200%:+) |
| CCCCCCCCCCCCOCC(O)COC1=C(OCC(O)CO)C(C(O)CO)OC1=O (centres unmarked) [Example 85] | ++ (40 to 70%:++) | – |
| O=C1OC(C(O)CO)C(OCC(O)COc2ccccc2)=C1OCC(O)COc1ccccc1 (centres unmarked) [Example 88, 2,3-di-O-phenylglyceryl ascorbic acid] | ++ (40 to 70%:++) | Collagen production promoting effect (collagen production amount, % of control group) [2]: + (100 to 200%:+) |
| 3-O-dodecylglyceryl-2-O-octylglyceryl ascorbic acid [Example 26] | ++ (40 to 70%:++) | – |
| CCCCCCCCOC1=C(OCC(O)COCCCC)[C@@H]([C@@H](O)CO)OC1=O (some centres unmarked) [Example 70] | ++ (40 to 70%:++) | – |
| O=C1OC(C(O)CO)C(OC(CO)c2ccccc2)=C1O (centres unmarked) [compound 12, 3-O-(2-hydroxy-1-phenylethyl)ascorbic acid] | ++ (40 to 70%:++) | – |
| CCCCCCCOC1=C(OCC(O)CO)[C@@H]([C@@H](O)CO)OC1=O (some centres unmarked) [Example 59] | ++ (40 to 70%:++) | – |
| 3-O-ethylglyceryl-2-O-butyl ascorbic acid [Example 18] | – | Collagen production promoting effect (collagen production amount, % of control group) [2]: + (100 to 200%:+) |
| O=C1O[C@H]([C@@H](O)CO)C([O-])=C1O.[Na+] [sodium ascorbate, reference compound] | ± (<20%:±) | – |
| CCOCC(O)COC1=C(O)C(=O)OC1C(O)CO (centres unmarked) [Example 7, 3-O-ethylglyceryl ascorbic acid] | + (20 to 40%:+) | – |
| O=C1OC(C(O)CO)C(OCC(O)CO)=C1OCc1ccccc1 (centres unmarked) [Example 17, 3-O-glyceryl-2-O-benzyl ascorbic acid] | + (20 to 40%:+) | activity at 100 µM ([2]; Homo sapiens, Fibroblast, N=4, read-out: Collagen production promoting effect (collagen production amount, % of control group)): 100 to 200% |
| CCCCCCCCCCCCOCC(O)COC1=C(OCC(O)COCCCC)C(C(O)CO)OC1=O (centres unmarked) [Example 90] | + (20 to 40%:+) | Collagen production promoting effect (collagen production amount, % of control group) [2]: + (100 to 200%:+) |
| CCCCCCCCCCCCCCCCOCC(O)COC1=C(OCC(O)CO)C(=O)OC1C(O)CO (centres unmarked) [Example 82] | ++ (40 to 70%:++) | – |

| Molecule | Whitening effect (melanine production suppressing rate) [1] | also measured |
| --- | --- | --- |
| CC=CCOC1=C(OCC(O)COCCCC)[C@@H]([C@@H](O)CO)OC1=O (some centres unmarked) [Example 53] | + (20 to 40%:+) | – |
| CCCCCCCCCCCCCOC1=C(OCC(O)CO)[C@@H]([C@@H](O)CO)OC1=O (some centres unmarked) [Example 64] | ++ (40 to 70%:++) | – |
| CCCCCCOC1=C(OCC(O)COCCCC)[C@@H]([C@@H](O)CO)OC1=O (some centres unmarked) [Example 69] | +++ (70 to 100%:+++) | – |
| CCCCCCCCCOC1=C(OCC(O)CO)[C@@H]([C@@H](O)CO)OC1=O (some centres unmarked) [Example 60] | +++ (70 to 100%:+++) | – |
| CCOCC(O)COC1=C(O)C(C(O)CO)OC1=O (centres unmarked) [Example 13, 2-O-ethylglyceryl ascorbic acid] | + (20 to 40%:+) | – |
| CCCCCCOC1=C(OCC(O)CO)[C@@H]([C@@H](O)CO)OC1=O (some centres unmarked) [Example 58] | ++ (40 to 70%:++) | – |
| CCCCCCCCCCCCCCCCOC1=C(OCC(O)COCCCC)[C@@H]([C@@H](O)CO)OC1=O (some centres unmarked) [Example 72] | ++ (40 to 70%:++) | – |
| CCCCCCCCCCCCCCOC1=C(OCC(O)CO)[C@@H]([C@@H](O)CO)OC1=O (some centres unmarked) [Example 65, 3-O-glyceryl-2-O-tetradecyl ascorbic acid] | ++ (40 to 70%:++) | whitening effect (in words) ([1]; conclusion from Tables 38-40, compared with known ascorbic acid derivatives): excellent whitening effect |
| CCCCCCCCOCC(O)COC1=C(OCCCCCCCC)C(=O)O[C@@H]1[C@@H](O)CO (some centres unmarked) [Example 73] | + (20 to 40%:+) | – |
| CCCCCCCCCCCOC1=C(OCC(O)CO)[C@@H]([C@@H](O)CO)OC1=O (some centres unmarked) [Example 62] | ++ (40 to 70%:++) | – |
| OC[C@H]1O[C@@H](Oc2ccc(O)cc2)[C@H](O)[C@@H](O)[C@@H]1O [arbutin] | ++ (40 to 70%:++) | – |
| CCCCOCC(O)COC1=C(OCC)C(=O)O[C@@H]1[C@@H](O)CO (some centres unmarked) [Example 68] | + (20 to 40%:+) | – |
| CCCCCCCCC(O)COC1=C(OCCCC)C(=O)O[C@@H]1[C@@H](O)CO (some centres unmarked) [Example 79] | +++ (70 to 100%:+++) | – |
| CCCCCCCCC(O)COC1=C(OCC)C(C(O)CO)OC1=O (centres unmarked) [Example 98] | ++ (40 to 70%:++) | – |
| O=C1O[C@H]([C@@H](O)CO)C(OCC(O)COc2ccccc2)=C1O (some centres unmarked) [Example 44] | – | Collagen production promoting effect (collagen production amount, % of control group) [2]: + (100 to 200%:+) |
| CCCCCCCCCCCCOC1=C(OCC(O)COCCCC)[C@@H]([C@@H](O)CO)OC1=O (some centres unmarked) [Example 71] | + (20 to 40%:+) | – |
| C=CCOC1=C(OCC(O)COc2ccccc2)[C@@H]([C@@H](O)CO)OC1=O (some centres unmarked) [Example 55] | + (20 to 40%:+) | – |
| CCCCCCCCCCOC1=C(OCC(O)CO)[C@@H]([C@@H](O)CO)OC1=O (some centres unmarked) [Example 61] | +++ (70 to 100%:+++) | – |
| CCCCCCCCCCCCCCCCOCC(O)COC1=C(OCCCCCCCC)C(=O)O[C@@H]1[C@@H](O)CO (some centres unmarked) [Example 77] | + (20 to 40%:+) | – |
| CCCCCCCCOCC(O)COC1=C(OCC(O)COCCCCCCCC)C(C(O)CO)OC1=O (centres unmarked) [Example 91] | + (20 to 40%:+) | – |

Source: patent US8163939B2, “Ascorbic acid derivative or salt thereof, production method thereof, and cosmetic” (Seikwa Kasei Company, Limited, priority 2007, dated 2012)
